The record followed here is patent US11912662B1, “2-alkoxy[4,3:6,2-terpyridine]-3-carbonitrile as antimicrobial compounds” (KING FAISAL UNIVERSITY, priority 2023, dated 2024).

Common to all, as to format: cell-based
Test [1] relates to Staphylococcus aureus. In words: Agar plate disc-diffusion antibacterial test, Staphylococcus aureus. The conditions noted are these: nutrient agar, 37° C., 48 h, DMSO control zone subtracted. As to the method:
(§1) The agar plate disc-diffusion method was applied. Sterilized filter papers (6 mm in diameter) were wetted with 10 μL of a solution of 2-ethoxy[4,3:6,2-terpyridine]-3-carbonitrile (4) or 2-methoxy[4,3:6,2-terpyridine]-3-carbonitrile (5) to be tested, containing […], and the discs were allowed to air dry. The discs were then placed onto the surface of agar plates (nutrient agar for bacteria and Sabouraud's dextrose agar for fungi) seeded with the test organism. Each plate contained 15 mL of the agar medium, previously seeded with 0.2 mL of the broth culture of each organism pre-grown for 18 hours. The plates were incubated at 37° C. for 48 h, and 72 h for fungi. The inhibition zones were measured in mm. Discs impregnated with DMSO were used as a control, and its inhibition zone was subtracted from the tested compound actual inhibition zone.
(§2) The results of the antimicrobial testing can be observed in Tables 1 and 2, below, using ciprofloxacin as a reference.
Background: Agar diffusion results depend on both activity and mobility in agar.

For test [2], the system named is Escherichia coli. In words: Agar plate disc-diffusion antibacterial test, Escherichia coli. The conditions noted are these: nutrient agar, 37° C., 48 h, DMSO control zone subtracted. As to the method:
as §1, §2

Test [3] relates to Aspergillus flavus. In words: Agar plate disc-diffusion antifungal test, Aspergillus flavus. The conditions noted are these: Sabouraud's dextrose agar, 37° C., 72 h, DMSO control zone subtracted. The protocol:
as §1, §2

The subject of test [4] is Bacillus cereus. Description: Agar plate disc-diffusion antibacterial test, Bacillus cereus. Conditions: nutrient agar, 37° C., 48 h, DMSO control zone subtracted. The protocol: as §1, §2
Test [5] concerns Pseudomonas aeruginosa. Description: Agar plate disc-diffusion antibacterial test, Pseudomonas aeruginosa. The conditions noted are these: nutrient agar, 37° C., 48 h, DMSO control zone subtracted. As to the method:
as §1, §2

The test system of test [6] is Chrysosporium keratinophilum. Description: Agar plate disc-diffusion antifungal test, Chrysosporium keratinophilum. Conditions: Sabouraud's dextrose agar, 37° C., 72 h, DMSO control zone subtracted. The protocol: as §1, §2
[7] abbreviates: A = concentration of comp. = 10,000 μL.
The mark [8] stands for this setting: B = concentration of comp. = 30.000 μL.
[9] abbreviates: C = concentration of comp. = 50,000 μL.

As for `CCOc1nc(-c2ccccn2)cc(-c2cccnc2)c1C#N` [Compound 4, 2-ethoxy[4,3:6,2-terpyridine]-3-carbonitrile], the inhibition zone came to 16 mm in test [1] (setting [7]); 20 mm in test [1] (setting [8]); 28 mm in test [1] (setting [9]); 28 mm in test [2] (setting [7]); 37 mm in test [2] (setting [8]); 51 mm in test [2] (setting [9]). The inhibition zone was 20 mm in test [3] (setting [7]); 23 mm in test [3] (setting [8]); 35 mm in test [3] (setting [9]); 25 mm in test [4] (setting [7]); 27 mm in test [4] (setting [8]); 40 mm in test [4] (setting [9]). The inhibition zone in test [5] (setting [7]) is on record as 24 mm; in test [5] (setting [8]), 29 mm; in test [5] (setting [9]), 46 mm; in test [6] (setting [7]) it was 22 mm; in test [6] (setting [8]) it was 24 mm; in test [6] (setting [9]) it was 35 mm.
Take `COc1nc(-c2ccccn2)cc(-c2cccnc2)c1C#N` [Compound 5, 2-methoxy[4,3:6,2-terpyridine]-3-carbonitrile]: the inhibition zone in test [1] (setting [7]) turned out to be 18 mm; in test [1] (setting [8]), 22 mm; in test [1] (setting [9]) it was 31 mm; in test [2] (setting [7]), 29 mm; in test [2] (setting [8]), 38 mm; in test [2] (setting [9]), 54 mm. In addition, the inhibition zone in test [3] (setting [7]) came out at 21 mm; in test [3] (setting [8]), 26 mm; in test [3] (setting [9]) it was 31 mm; in test [4] (setting [7]), 26 mm; in test [4] (setting [8]) it was 28 mm; in test [4] (setting [9]), 41 mm. Further, the inhibition zone is 25 mm in test [5] (setting [7]); 29 mm in test [5] (setting [8]); 47 mm in test [5] (setting [9]); 25 mm in test [6] (setting [7]); 27 mm in test [6] (setting [8]); 47 mm in test [6] (setting [9]).
`O=C(O)c1cn(C2CC2)c2cc(N3CCNCC3)c(F)cc2c1=O` [Cip., ciprofloxacin, reference compound]: the inhibition zone in test [1] (setting [7]) is 43 mm; in test [1] (setting [8]) it was 44 mm; in test [1] (setting [9]) it was 53 mm; in test [2] (setting [7]), 30 mm; in test [2] (setting [8]), 39 mm; in test [2] (setting [9]), 60 mm. Also, the inhibition zone in test [3] (setting [7]) was found to be 29 mm; in test [3] (setting [8]), 30 mm; in test [3] (setting [9]), 42 mm; in test [4] (setting [7]) it was 29 mm; in test [4] (setting [8]), 30 mm; in test [4] (setting [9]), 42 mm. The inhibition zone in test [5] (setting [7]) was 29 mm; in test [5] (setting [8]), 30 mm; in test [5] (setting [9]), 53 mm; in test [6] (setting [7]), 29 mm; in test [6] (setting [8]), 30 mm; in test [6] (setting [9]), 53 mm.
